# Source: ChEMBL document CHEMBL1143098, “Design and synthesis of 6-amino-1,4-oxazepane-3,5-dione derivatives as novel broad spectrum anticonvulsants” (2008)
# How the values were obtained:
# [1] = organism: Mus musculus; test: Anticonvulsant activity in ICR mouse after 30 mins by MES test; assay type: functional; settings: 0.5 h
# [2] = organism: Mus musculus; test: Anticonvulsant activity against pentylenetetrazole-induced seizure in ICR mouse after 30 mins; assay type: functional; settings: 0.5 h
SMILES,ED50 [1],ED50 [2]
O=C(NC1COCC(=O)N(Cc2ccc(F)cc2)C1=O)OCc1ccccc1 (stereo unspecified),> 100 mg/kg,53.9 mg/kg
O=C(NC1COCC(=O)N(Cc2ccco2)C1=O)OCc1ccccc1 (stereo unspecified),> 100 mg/kg,64.1 mg/kg
O=C(NC1COCC(=O)N(Cc2ccccc2)C1=O)OCc1ccccc1 (stereo unspecified),> 100 mg/kg,64.1 mg/kg
CCCCCCN1C(=O)COCC(NC(=O)OCc2ccccc2)C1=O (stereo unspecified),87.5 mg/kg,35.6 mg/kg
CC(C)CN1C(=O)COCC(NC(=O)OCc2ccccc2)C1=O (stereo unspecified),> 100 mg/kg,> 100 mg/kg
O=C(NC1COCC(=O)N(C2CC2)C1=O)OCc1ccccc1 (stereo unspecified),87.5 mg/kg,27 mg/kg
CN1C(=O)COCC(NC(=O)OCc2ccccc2)C1=O (stereo unspecified),68.8 mg/kg,41 mg/kg
CCCN1C(=O)COCC(NC(=O)OCc2ccccc2)C1=O (stereo unspecified),> 100 mg/kg,> 100 mg/kg
O=C1COCC(NC(=O)OCc2ccccc2)C(=O)N1 (stereo unspecified),81.2 mg/kg,55.1 mg/kg
C=CCN1C(=O)COCC(NC(=O)OCc2ccccc2)C1=O (stereo unspecified),70.3 mg/kg,37.1 mg/kg
CCCCN1C(=O)COCC(NC(=O)OCc2ccccc2)C1=O (stereo unspecified),93.8 mg/kg,34.8 mg/kg
O=C(NC1COCC(=O)N(O)C1=O)OCc1ccccc1 (stereo unspecified),93.8 mg/kg,96.9 mg/kg
CCCC(CCC)C(=O)O [VALPROIC ACID],271 mg/kg,149 mg/kg
